This note sets out measurements from patent US10066272B2, “Human homeobox gene ventx and macrophage terminal differentiation and activation, compositions and methods thereof” (priority 2011, dated 2018).

Data set [1] has as its system allogenic naive CD4+ T cells. The data set is described as follows: Mixed lymphocyte reaction. The class given is cell-based, human. Particulars: irradiated transfected macrophages (FIG. 8F). As for the experimental part: (§1) Macrophages were generated through incubation of freshly isolated monocytes with 100 ng/mL M-CSF for 4 days. These macrophages were then transfected with siGFP or siVentX, respectively, and further cultured in RPMI 1640 medium for additional 3 days. Thereafter, cells were exposed to 1 μg/mL LPS plus 20 ng/mL γ-IFN for 6 hours. (A) Surface staining of CD40, CD80, CD86 and HLA-DR and intracellular staining of TNF-α and IL1-β were analyzed by flow cytometry. (B) Secreted TNF-α, IL1-β and IL12p70 from culture supernatants were determined with ELISA kits. (C) Reactive oxygen species (ROS) from siGFP or siVentX transfected macrophages were analyzed with fluorescence microscope (left) and flow cytometry (middle). […] (D) Nitrate level from siGFP and siVentX transfected macrophages. Data represent mean+SD of three different experiments. (E) Phagocytosis of siGFP and siVentX transfected macrophage. Red histogram represents transfection with siGFP; green histogram represents transfection with siVentX. Left panel: cells were incubated on ice; right panel: cells were incubated at 37° C. (F) Effects of VentX knockdown on mixed lymphocyte reaction. Irradiated macrophages that had been transfected with siGFP or siVentX were utilized to stimulate allogenic naïve CD4 T cells proliferation. The proliferation rates were represented by counts per minute (CPM). […]

A further data set deals with macrophages. Description: Macrophage classical activation after siRNA transfection, surface markers by flow cytometry. Type of data set: cell-based, human. Conditions: transfected macrophages. As for the experimental part:
as §1, with “reaction.” for “reaction. Irradiated macrophages that had been transfected with siGFP or siVentX were utilized to stimulate allogenic naïve CD4 T cells proliferation. The proliferation rates were represented by counts per minute (CPM).”
(A) Effects VentX over-expression on the expression of LPS and IFN-γ pathways components. […] No significant binding of VentX to the promoter regions of STAT1 and JunB was detected by the ChIP assay. […]

For the substance “siVentX: VentX siRNA, forward 5′-UUCAGAAUCGCCGCAUGAAACACAAACGG-3′ (SEQ ID NO:4), reverse SEQ ID NO:5 (antisense CCGUUUGUGUUUCAUGCGGCGAUUCUGAA; listed as RNA, chemistry not given here)”, the “stimulation of allogeneic T cells proliferation” value in data set [1] is reported as “less potent”. The “surface expression of CD40, CD80 and CD86” value in the data set on macrophages (LPS plus IFN-γ, HLA-DR not affected (FIG. 8A)) is reported as “significantly down-regulated”. Further, the “surface expression of CD119 (IFN-γ receptor 1), CD14 and TLR4” value in the data set on macrophages (flow cytometry (FIG. 9C)) is “significantly diminished”.
